Results published in patent US20190365784A1, “USE OF BRASSINOSTEROID ANALOGS FOR THE TREATMENT OF DERMAL DISORDERS BY SELECTIVELY MODULATING LIVER X RECEPTORS (LXR) AND DERMAL DISEASE TREATMENT BY BRASSINOSTEROID ANALOGS ACTING AS SELECTIVE LIVER X RECEPTOR (LXR) MODULATORS” (CONSEJO NACIONAL DE INVESTIGACIONES CIENTÍFICAS Y TÉCNICAS …, priority 2015, published 2019).
“And” between values parts separate entries of the source, which are not always exact repeats. Identical values can stand only once. Marks after values point to notes of the source that are not given here. Each block holds one molecule with its values, some of them ahead of it.

What was measured:
[1] = molecular target: T1, LXR-alpha (Homo sapiens, UniProt Q13133); assay: LXR-alpha/RXR LRE-luciferase reporter in transfected HEK293T cells; assay type: cell-based; conditions: 10 uM, 18 h
T1 sequence (Q13133 1-447): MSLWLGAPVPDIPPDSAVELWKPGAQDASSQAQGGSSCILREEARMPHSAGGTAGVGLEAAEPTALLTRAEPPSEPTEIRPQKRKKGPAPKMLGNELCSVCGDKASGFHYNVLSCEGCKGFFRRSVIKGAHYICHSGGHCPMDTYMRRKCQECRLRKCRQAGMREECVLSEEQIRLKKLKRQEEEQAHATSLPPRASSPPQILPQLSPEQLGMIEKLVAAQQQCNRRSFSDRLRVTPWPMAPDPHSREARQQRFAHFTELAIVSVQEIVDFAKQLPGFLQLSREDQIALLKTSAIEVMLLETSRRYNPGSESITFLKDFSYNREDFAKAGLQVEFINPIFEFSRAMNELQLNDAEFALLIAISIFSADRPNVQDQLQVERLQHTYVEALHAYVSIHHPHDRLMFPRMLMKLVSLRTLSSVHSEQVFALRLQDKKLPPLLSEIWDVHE
T1 sequence (P19793 1-462 partner): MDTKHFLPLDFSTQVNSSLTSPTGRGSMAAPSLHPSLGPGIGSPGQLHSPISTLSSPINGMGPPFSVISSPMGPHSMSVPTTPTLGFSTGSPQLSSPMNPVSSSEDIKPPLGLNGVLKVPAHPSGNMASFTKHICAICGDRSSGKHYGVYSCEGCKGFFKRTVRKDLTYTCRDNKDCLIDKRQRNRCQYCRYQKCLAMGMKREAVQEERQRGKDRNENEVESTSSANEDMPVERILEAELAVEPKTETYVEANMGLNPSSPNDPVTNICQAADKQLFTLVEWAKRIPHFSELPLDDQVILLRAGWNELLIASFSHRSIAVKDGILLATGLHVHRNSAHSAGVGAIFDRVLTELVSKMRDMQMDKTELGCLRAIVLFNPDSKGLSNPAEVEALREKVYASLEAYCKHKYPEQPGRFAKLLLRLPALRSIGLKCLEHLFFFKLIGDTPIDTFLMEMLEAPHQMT
Description: Since we had previously shown that the beneficial effects of the compounds of the invention are independent of glucocorticoid receptor (GR) activation, we set forth to investigate if they might exert their actions through activation of liver X receptors (LXR). For this purpose we used cultured cells transiently transfected with LXR-alpha, the retinoid X receptor (RXR) and a LXR response element-luciferase reporter (LRE-LUC). A. Human embryonic kidney cells (HEK293T; 5×10^5 cells/well) were cultured in DMEM medium supplemented with 10% (v/v) fetal bovine serum, 100 ug/ml of streptomycin, 100 IU/ml of penicillin and 2 mM glutamine. For the transient transfections, the cell cultures were added with plasmids carrying LXR-alpha (pLXR-alpha; 0.6 ug), the retinoid X receptor (pRXR; 0.2 ug), a LXR response element-luciferase reporter (pRE-LUC; 0.7 ug) and beta-galactosidase gene (pRSV-LacZ; 0.6 ug) as a transfection control, using Lipofectamine 2000 (Invitrogen). […] Compounds III to VI are […] analogs bearing a fluorine atom at C-6. To assess LXR-alpha activation, at the end of the incubation period luciferase activity was measured by use of a luciferase assay system (Promega). The results of three independent assays, carried out in duplicate for each condition, are reported.

[2] = Liver weight and gross morphology (hepatic steatosis) in C57BI mice after 5 days i.p. treatment; assay type: in vivo; conditions: male C57BI mice, T0901317 5 mg/kg i.p. daily for 5 days
Experimental: (§1) Administration of synthetic LXR agonists such as T0901317 induces a marked increment of liver lipogenesis that leads to hepatic steatosis and plasma hypertriglyceridemia.
(§2) Male C57BI mice received daily for 5 days intraperitoneal injections containing either 10 mg Compound I/kg, or 5 mg T0901317/kg, or vehicle [90% (v/v) DMSO in apyrogenic sterile water]. On the sixth day of the assay, the animals were fasted for 4 h before decapitation. Blood plasma was obtained for the determination of total cholesterol, HDL-cholesterol and triglyceride contents. The livers were resected, and their weights and colors used as gross markers of increased liver triglyceride contents.

[3] = Plasma total cholesterol, HDL-cholesterol and triglyceride in C57BI mice after 5 days i.p. treatment; assay type: in vivo; conditions: male C57BI mice; T0901317 5 mg/kg i.p. daily for 5 days
Experimental: as §1, §2

[4] = tested on: imiquimod-induced skin lesions; assay: Imiquimod-induced psoriasis model in mice: clinical signs and dorsal skin histopathology; assay type: in vivo; design: key to Hyperkeratosis, protective effect / Epidermal serocellular crust, protective effect / Acanthosis, protective effect / Dermal inflammatory infiltrates, protective effect: the (+) sign represents the presence of a protective effect; a (−) sign represents the absence of protective effect
Description: To test whether Compound I might ameliorate the signs of psoriasis, we topically administered Compound I to imiquimod-induced skin lesions in mice. The imiquimod mouse model of psoriasis-like skin inflammation is characterized by lesions that show augmented epidermal cell proliferation, abnormal keratinocyte differentiation, neutrophil accumulation in epidermal microabcesses, and neoangiogenesis.
For this study, thirty two 8-week old female Balbc/J mice were housed […] in positively ventilated polysulfonate cages with HEPA filtered air at a density of 4 mice per cage. The animal room was lighted entirely with artificial fluorescent lighting, with a controlled 12 h light/dark cycle (6 am to 6 pm light). The normal temperature and relative humidity ranges in the animal rooms were 22±4° C. and 50±15%, respectively. The animal rooms were set to have a minimum of 15 air exchanges per hour. Filtered tap water, acidified to a pH of 2.5 to 3.0, and standard rodent chow were provided ad libitum. After 1 week of acclimation mice were randomized into 4 groups (n=8/each) as shown below (Table 1).
1. IMQ induction: On day 0 all grouped mice received a topical dose of 62.5 mg of IMQ cream (5%) on the shaved back for 6 consecutive days. (Day 0 to Day 5)
3. Mice were scored for clinical parameters of disease based on degree of erythema, scaling and thickening independently on a scale of 0-4. 0=none; 1=slight; 2=moderate; 3=moderate to severe: 4=severe. These observations were recorded on day 0, 2, 4, 6, and 8. On the same days, back skin thickness was measured with calipers.
5. Mice were sacrificed on day 10 by CO2 asphyxiation.
6. A part of the back skin was harvested and fixed for histology. Slides were processed, stained with H&E for histology assessment.
Dorsal skin sections were evaluated histopathologically for evidence of key features of psoriasis, such as parakeratosis, hyperkeratosis (thickening of the stratum corneum), acanthosis (diffuse thickening of the stratum spinosum of the skin), epidermal serocellular crusts, epidermal microabscesses, basilar papillae, dermal inflammatory infiltrates and dilated tortuous capillaries (Table 2. Histopathological scoring system and definition used in the Imiquimod psoriasis model).

[5] = Body and spleen weight in imiquimod psoriasis model mice; conditions: 9 days topical treatment
Experimental: Mice were dosed with 0.1-0.2 ml of vehicle [90% (v/v) DMSO in pyrogen-free sterile water] or test compounds (0.1-0.2 ml of Compound I) or reference compound (˜0.05 mg clobetasol propionate, 0.5 mg/g cream) for 9 days (day 0-day 8) as indicated in Table 1. Compound I Doses 1 and 2 were 0.05% (w/v) and 0.1% (w/v) in 90% (v/v) DMSO in vehicle.
Body weights were measured daily.
Spleens were harvested, weighed and discarded.

[6] = psoriatic mice, topical 0.05%, QD 9 days
[7] = topical 0.05%, summary of Table 3

Structure (SMILES): CC[C@@H](C(C)C)[C@H](O)[C@@H](O)[C@@H](C)[C@H]1CC[C@H]2[C@@H]3C[C@@H](F)C4=CC(=O)CC[C@]4(C)[C@H]3CC[C@]12C [Compound IV, (22S,23S)-6β-fluoro-22,23-dihydroxystigmast-4-en-3-one]
induction of LXR-alpha driven gene expression compared with GW3965 (1 uM) [1]: within the same range as that observed for GW3965

Structure (SMILES): CC[C@@H](C(C)C)[C@H](O)[C@@H](O)[C@@H](C)[C@H]1CC[C@H]2[C@@H]3C[C@@H](F)C4=CC(=O)C=C[C@]4(C)[C@H]3CC[C@]12C [Compound VI, (22S,23S)-6β-fluoro-22,23-dihydroxystigmasta-1,4-dien-3-one]
induction of LXR-alpha driven gene expression compared with GW3965 (1 uM) [1]: within the same range as that observed for GW3965

liver color versus DMSO-treated mice [2]: paler | liver steatosis (liver weight and color) [2]: induces liver steatosis | liver weight higher than in DMSO-treated mice ([2]; 5 mg/kg): 27% and ~23% | HDL-cholesterol plasmatic content higher than in Compound I- or Vehicle-treated mice [3]: 50% | total cholesterol plasmatic content higher than in Compound I- or Vehicle-treated mice [3]: 50% | triglyceride plasmatic content higher than in Compound I- or Vehicle-treated mice [3]: > 2 times
Structure (SMILES): O=S(=O)(c1ccccc1)N(CC(F)(F)F)c1ccc(C(O)(C(F)(F)F)C(F)(F)F)cc1 [Compound T0901317]

Structure (SMILES): CCC(=O)O[C@]1(C(=O)CCl)[C@@H](C)C[C@H]2[C@@H]3CCC4=CC(=O)C=C[C@]4(C)[C@@]3(F)[C@@H](O)C[C@@]21C [Clobetasol, clobetasol propionate, reference compound]
acanthosis reduced versus 0.1% (w/v) Compound I-treated animals ([4]; Clobetasol-treated mice): 33% | dermal inflammatory infiltrates versus 0.1% (w/v) Compound I-treated animals ([4]; Clobetasol-treated mice): absent | back skin thickening (calipers) ([4]; after 9 days topical, Compound I 0.05% and 0.1% (w/v), clobetasol 0.05% cream): inhibited IMQ-induced skin thickening in the back | global response score of dorsal skin, lower than in vehicle-treated psoriatic mice ([4]; clobetasol 0.05% topical, 9 days): ~42% | skin erythema (clinical score 0-4, in words) ([4]; day 8, topical QD 9 days, both Compound I doses 0.05% and 0.1% (w/v), clobetasol 0.05% cream): absent | scaling (clinical score 0-4, in words) ([4]; day 8, topical QD 9 days, both Compound I doses, clobetasol 0.05% cream): absent in ⅝ mice and slight in the rest of the animals | Acanthosis (0-4), group mean score of dorsal skin [4, 6]: 1.4†† | Basliar papillae (0-4), group mean score of dorsal skin [4, 6]: 0.0 | Dermal inflammatory infiltrates (0-4), group mean score of dorsal skin [4, 6]: 0.0†† | Dilated tortuous capillaries (0-4), group mean score of dorsal skin [4, 6]: 0.0 | Epidermal micro-abscesses (0-4), group mean score of dorsal skin [4, 6]: 0.0 | Epidermal serocellular rust (0-4), group mean score of dorsal skin [4, 6]: 0.6 | Hyperkeratosis (0-4), group mean score of dorsal skin [4, 6]: 1.8 | Mean Global Score, dorsal skin [4, 6]: 3.8 | Parakeratosis (0-4), group mean score of dorsal skin [4, 6]: 0.0 | severity of microscopic alterations of back skin (histopathology) ([4]; topical 0.05%, QD 9 days): lowest severity | Acanthosis, protective effect [4, 7]: + | Dermal inflammatory infiltrates, protective effect [4, 7]: + | Epidermal serocellular crust, protective effect [4, 7]: − | Hyperkeratosis, protective effect [4, 7]: − | reduction of body weight compared with vehicle-treated psoriatic mice [5]: 15% | reduction of spleen weight compared with vehicle-treated psoriatic mice [5]: 62.6%
